Converted amounts (≈) assume the structure as drawn. “Also recorded” adds a separate entry of the source.
Experiments:
Assay type in all cases: physicochemical
[1] = Solubility test of Form I and free base in different dissolution media; settings: for solubility at 24 h: thermodynamic from solid, saturated for 24 hours
Description: Determination method: excess amount of Form I sample of compound of Formula A and its free base (compound 4-ethyl-N-(4-((3-ethynylphenyl)amino)-7-methoxyquinazolin-6-yl) piperazine-1-carboxamide) were suspended in different dissolution media respectively, and saturated for 24 hours under shaking at constant temperature, then filtered. The filtrates were used for determining solubility of the samples. The buffers of different pH, simulated gastric fluid, and simulated intestinal fluid were prepared according to the US pharmacopeia (USP40-NF35).

Hygroscopicity of Form I = assay: Hygroscopicity of Form I
Description: Determination method: the test sample of Form I was weighed and placed on a culture dish, which was uncovered and placed in a sealed clean container with the relative humidity of 92.5%. Then the container was placed at room temperature for 10 days. Then sampled, weighed the sample after placed for 10 days, and compared with the weight of the sample before the test. Thereby the percentage of weight gain by hygroscopicity of the sample was calculated. The crystalline form was also investigated (using X-ray powder diffraction analysis).

[2] = Stability of Form I under high temperature, high humidity and illumination conditions; settings: for Purity A %: HPLC
Description: Determination method: the test sample of Form I of compound of Formula A was placed on a culture dish, which was uncovered and placed in sealed clean containers. The containers were placed under a temperature of 60° C. and an illumination of 4500 lx±500 lx respectively for 10 days; or the containers were placed under a temperature of 25° C. and a relative humidity of 92.5%%±5% and under a temperature of 40° C. and a relative humidity of 75%±5% respectively for 2 weeks.
Then sampled and investigated for the purity (using HPLC analysis) and crystalline form (using X-ray powder diffraction analysis) of the sample.

[3] = aqueous buffer, pH 1.2 buffer, 25° C.
[4] = aqueous buffer, pH 2.1 buffer, 25° C.
[5] = aqueous buffer, pH 4.5 buffer, 25° C.
[6] = aqueous buffer, pH 6.8 buffer, 25° C.
[7] = aqueous buffer, pH 7.4 buffer, 25° C.
[8] = fassgf or other biorelevant, Simulated intestinal fluid (SIF), 20° C.
[9] = Simulated gastric fluid (SGF), 20° C.

solubility at 24 h [1, 3] [mg/mL] | solubility at 24 h [1, 4] [mg/mL] | solubility at 24 h [1, 5] [mg/mL] | solubility at 24 h [1, 6] [mg/mL] | solubility at 24 h [1, 7] [mg/mL] | solubility at 24 h ([1]; aqueous buffer, pH 8.0 buffer, 25° C.) [mg/mL] | solubility at 24 h [1, 8] [mg/mL] | solubility at 24 h ([1]; Distilled water, 20° C.) [mg/mL] | solubility at 24 h [1, 9] [mg/mL] | Crystal form after 10 days (Hygroscopicity of Form I; 92.5% RH, 25° C., 10 days, X-ray powder diffraction) | Weight gain after 10 days (%) (Hygroscopicity of Form I; 92.5% RH, 25° C., 10 days, succinate) | Hygroscopicity, conclusion in words (Hygroscopicity of Form I; high humidity condition for 10 days) | Purity A % ([2]; 0 day (Table 1)) [%] | Purity A % ([2]; 0 day (Table 2)) [%] | Purity A % ([2]; 60° C., 10 days) [%] | Purity A % ([2]; 75 ± 5% RH/40° C., 2 weeks) [%] | Purity A % ([2]; 92.5 ± 5% RH/25° C., 2 weeks) [%] | Purity A % ([2]; 4500 lx ± 500 lx, 10 days) [%] | Stability (chemical purity and crystalline form), conclusion in words ([2]; high temperature and illumination 10 days, high humidity 2 weeks) | Structure (SMILES) | Solubility compared with that of the free base, in words ([1]; data of Table 4, succinate)
103 | 15.5 | 10 | 0.253 | 0.0461 | 0.0005 | 0.253 | 0.803 | 103 | not changed | 0.01 | non-hygroscopic | 99.37 | 98.98 | 98.68 | 99.08 | 98.98 | 99.29 | stable | C#Cc1cccc(Nc2ncnc3cc(OC)c(NC(=O)N4CCN(CC)CC4)cc23)c1.O=C(O)CCC(=O)O [Form I, 4-ethyl-N-(4-((3-ethynylphenyl)amino)-7-methoxyquinazolin-6-yl)piperazine-1-carboxamide succinate] | –
– | – | – | – | – | – | – | – | – | – | – | – | – | – | – | – | – | – | – | C#Cc1cccc(Nc2ncnc3cc(OC)c(NC(=O)N4CCN(CC)CC4)cc23)c1.O=C(O)CCC(=O)O [compound of Formula A, 4-ethyl-N-(4-((3-ethynylphenyl)amino)-7-methoxyquinazolin-6-yl)piperazine-1-carboxamide succinate] | significantly increased; also recorded: significantly higher
38.5 (≈ 89400 µM) | 5.45 (≈ 12700 µM) | 0.00521 (≈ 12.1 µM) | 0.00084 (≈ 1.95 µM) | 0.00041 (≈ 0.952 µM) | – | 0.00084 (≈ 1.95 µM) | 0.001 (≈ 2.32 µM) | 38.5 (≈ 89400 µM) | – | – | – | – | – | – | – | – | – | – | C#Cc1cccc(Nc2ncnc3cc(OC)c(NC(=O)N4CCN(CC)CC4)cc23)c1 [free base, 4-ethyl-N-(4-((3-ethynylphenyl)amino)-7-methoxyquinazolin-6-yl)piperazine-1-carboxamide] | –

Reference: patent US20210155611A1, “THE SALTS OF A COMPOUND AND THE CRYSTALLINE FORMS THEREOF” (Flutchison Medipharma Limited, priority 2017, published 2021)
